The subject of one data set is P. aeruginosa 1912E. Briefly: Minimum inhibitory concentration, agar dilution. The data set is classed as cell-based. The note with it: Pseudomonas aeruginosa, 20 h, read-out: Minimum Inhibitory Concentration. The procedure: (§1) The minimum inhibitory concentration was determined by diluting the test compounds according to 2-fold dilution, suspending them in M uller-Hinton agar medium, inoculating the test strains having 10^7 CFU per 1 ml into the medium and then culturing the medium at 37° C. for 20 hours.
On the technique in general: In agar dilution, organisms are placed on agar that contains the substance at set levels.

In a further data set the test system is E. coli TEM9 2639E. Briefly: Minimum inhibitory concentration, agar dilution. The data set is classed as cell-based. The note with it: Escherichia coli, TEM92639E, 20 h, read-out: Minimum Inhibitory Concentration. How it is done:
as §1

A further data set relates to S. marcescens 1826E. Put plainly: Minimum inhibitory concentration, agar dilution. The data set is classed as cell-based. The note with it: Serratia marcescens, Muller-Hinton agar, 10^7 CFU per ml, 37° C., 20 hours. How it is done: as §1
In another data set the test system is S. faecalis 29212A. Put plainly: Minimum inhibitory concentration, agar dilution. The note with it: Enterococcus faecalis, read-out: Minimum Inhibitory Concentration. The data set is classed as cell-based. How it is done:
as §1

Another data set concerns K. aerogenes 1976E. Briefly: Minimum inhibitory concentration, agar dilution. The note with it: Klebsiella aerogenes, Muller-Hinton agar, 10^7 CFU per ml, 37° C., 20 hours. The data set is classed as cell-based. How it is done: as §1
The next data set relates to P. aeruginosa 6065Y. Briefly: Minimum inhibitory concentration, agar dilution. The data set is classed as cell-based. Conditions: Pseudomonas aeruginosa, 20 h, read-out: Minimum Inhibitory Concentration. How it is done:
as §1

The next data set deals with S. aureus giorigio. Put plainly: Minimum inhibitory concentration, agar dilution. Conditions: Staphylococcus aureus, Muller-Hinton agar, 10^7 CFU per ml, 37° C., 20 hours. The data set is classed as cell-based. How it is done: as §1
Another data set deals with E. coli 10536. Put plainly: Minimum inhibitory concentration, agar dilution. The data set is classed as cell-based. Conditions: read-out: Minimum Inhibitory Concentration. How it is done: as §1
For another data set, the system named is E. coli TEM1 1193E. Put plainly: Minimum inhibitory concentration, agar dilution. The data set is classed as cell-based. Conditions: Escherichia coli, TEM11193E, 20 h, read-out: Minimum Inhibitory Concentration. The procedure:
as §1

The test system of the next data set is E. coli TEM5 3739E. Put plainly: Minimum inhibitory concentration, agar dilution. The data set is classed as cell-based. Conditions: Escherichia coli, TEM53739E, 20 h, read-out: Minimum Inhibitory Concentration. How it is done: as §1
Another data set has as its system A. calcoaceticus 15473A. Put plainly: Minimum inhibitory concentration, agar dilution. The data set is classed as cell-based. Conditions: Acinetobacter calcoaceticus, Muller-Hinton agar, 10^7 CFU per ml, 37° C., 20 hours. The procedure: as §1
For the next data set, the system named is S. aureus 6538pA. Put plainly: Minimum inhibitory concentration, agar dilution. Conditions: Staphylococcus aureus, Muller-Hinton agar, 10^7 CFU per ml, 37° C., 20 hours. The data set is classed as cell-based. The procedure: as §1
A further data set concerns S. typhimurium 14028A. Briefly: Minimum inhibitory concentration, agar dilution. The data set is classed as cell-based. Conditions: Salmonella enterica, read-out: Minimum Inhibitory Concentration. The procedure: as §1
A further data set deals with E. cloacae 1194E. Put plainly: Minimum inhibitory concentration, agar dilution. The data set is classed as cell-based. The note with it: Enterobacter cloacae, read-out: Minimum Inhibitory Concentration. How it is done: as §1
A further data set deals with E. coli 3190Y. Briefly: Minimum inhibitory concentration, agar dilution. Conditions: Escherichia coli, read-out: Minimum Inhibitory Concentration. The data set is classed as cell-based. How it is done: as §1
Another data set concerns P. aeruginosa 10145. Put plainly: Minimum inhibitory concentration, agar dilution. The note with it: Pseudomonas aeruginosa, Muller-Hinton agar, 10^7 CFU per ml, 37° C., 20 hours. The data set is classed as cell-based. How it is done:
as §1

Data set [1] is described as follows: Pharmacokinetic properties in SD rats. The data set is classed as in vivo. Conditions: rat; SD rats (male), intravenous, 20 mg/kg; blood, biological assay (agar well method). How it is done:
The pharmacokinetic properties of the compound of the present invention were determined using SD rats (.male.) weighing 220 to 340 g. Specifically, the test samples were administered in intravenous route in an amount of 20 mg/kg to 2 to 5 test animals. Blood was taken from femoral vein every hours after the administration and then subjected to a biological assay using agar well method to measure the blood concentration. The results of pharmacokinetic properties calculated from the above blood concentration are described in the following Table 3.

Where [2] appears, read: E. coli 3190Y, Muller-Hinton agar, 10^7 CFU per ml, 37° C., 20 hours.
Where [3] appears, read: Escherichia coli, E. coli 10536, Muller-Hinton agar, 10^7 CFU per ml, 37° C., 20 hours.
Setting [4] is: S. typhimurium 14028A, Muller-Hinton agar, 10^7 CFU per ml, 37° C., 20 hours.

Values after ≈ are worked out from the molar mass of the structure shown. Like-named read-outs stand apart in the source and are kept apart here.

As for `C[n+]1c(N)cc(N)nc1SCC1=C(C(=O)[O-])N2C(=O)C(NC(=O)C(=NOC(C(=O)O)c3ccc(O)c(O)c3)c3csc(N)n3)C2SC1` (stereo not drawn) [I-3(a), 7-[(Z)-2-(2-aminothiazol-4-yl)-2-(α-carboxy-3,4-dihydroxybenzyloximio)acetamido]-3-(4,6-diamino-1-methylpyrimidinium-2-yl)thiomethyl-3-cephem-4-carboxylate], the MIC in the data set with P. aeruginosa 1912E is 0.5 µg/mL (≈ 0.71 µM); in the data set on E. coli TEM9 2639E it was 4 µg/mL (≈ 5.68 µM); in the data set on S. marcescens 1826E it was 0.5 µg/mL (≈ 0.71 µM); in the data set on S. faecalis 29212A (29212A, 20 h), 32 µg/mL (≈ 45.5 µM); in the data set on K. aerogenes 1976E it was 0.25 µg/mL (≈ 0.355 µM); in the data set with P. aeruginosa 6065Y, 1 µg/mL (≈ 1.42 µM). In addition, the MIC with S. aureus giorigio is 0.5 µg/mL (≈ 0.71 µM); in the data set on E. coli 10536 (Escherichia coli, 10536, 20 h), 0.063 µg/mL (≈ 0.0895 µM); in the data set on E. coli TEM1 1193E, 0.063 µg/mL (≈ 0.0895 µM); with E. coli TEM5 3739E it was 0.5 µg/mL (≈ 0.71 µM); with A. calcoaceticus 15473A it was 0.5 µg/mL (≈ 0.71 µM); in the data set with S. aureus 6538pA it was 0.5 µg/mL (≈ 0.71 µM). Besides, the MIC with S. typhimurium 14028A (TYPHIMURIUM, 20 h) came to 0.063 µg/mL (≈ 0.0895 µM); with E. cloacae 1194E (E. cloacae 1194E, Muller-Hinton agar, 10^7 CFU per ml, 37° C., 20 hours), 8 µg/mL (≈ 11.4 µM); in the data set on E. coli 3190Y (setting [2]), 0.031 µg/mL (≈ 0.0441 µM); with P. aeruginosa 10145, 0.5 µg/mL (≈ 0.71 µM). Moreover, in data set [1], the AUC – broadly, concentration integrated over time – is 55400 ng·h/mL. For the same compound, in data set [1], the half-life (usually the time needed for the level to fall by half in the phase considered) was determined as 53 min.
Consider `Cn1cc[n+]2c(SCC3=C(C(=O)[O-])N4C(=O)C(NC(=O)C(=NOC(C(=O)O)c5ccc(O)c(O)c5)c5csc(N)n5)C4SC3)nc(N)cc12` (stereo not drawn) [I-11(a), 7-[(Z)-2-(2-aminothiazol-4-yl)-2-(α-carboxy-3,4-dihydroxybenzyloxyimino)acetamido]-3-(7-amino-1-methyl-1H-imidazo[1,2-c]pyrimidinium-5-yl)-thiomethyl-3-cephem-4-carboxylate], for which the MIC came to 0.5 µg/mL (≈ 0.687 µM) in the data set on P. aeruginosa 1912E; 1 µg/mL (≈ 1.37 µM) in the data set on E. coli TEM9 2639E; 0.25 µg/mL (≈ 0.344 µM) against S. marcescens 1826E; 8 µg/mL (≈ 11 µM) in the data set with S. faecalis 29212A (S. faecalis 29212A, Muller-Hinton agar, 10^7 CFU per ml, 37° C., 20 hours); 0.13 µg/mL (≈ 0.179 µM) in the data set on K. aerogenes 1976E; 0.5 µg/mL (≈ 0.687 µM) in the data set on P. aeruginosa 6065Y. Also, the MIC in the data set on S. aureus giorigio is 0.5 µg/mL (≈ 0.687 µM); with E. coli 10536 (setting [3]) it was ≤ 0.008 µg/mL; in the data set on E. coli TEM1 1193E it was 0.063 µg/mL (≈ 0.0866 µM); in the data set with E. coli TEM5 3739E, 0.25 µg/mL (≈ 0.344 µM); with A. calcoaceticus 15473A it was 0.5 µg/mL (≈ 0.687 µM); in the data set on S. aureus 6538pA it was 0.5 µg/mL (≈ 0.687 µM). In addition, the MIC in the data set on S. typhimurium 14028A (setting [4]) turned out to be 0.016 µg/mL (≈ 0.022 µM); in the data set on E. cloacae 1194E (1194E, 20 h), 1 µg/mL (≈ 1.37 µM); with E. coli 3190Y (setting [2]), 0.031 µg/mL (≈ 0.0426 µM); against P. aeruginosa 10145, 0.25 µg/mL (≈ 0.344 µM). This compound also gave an AUC in [1] of 47900 ng·h/mL. For the same compound, the half-life in [1] is 68 min.
For `C[n+]1cc(C(=O)O)c(N)nc1SCC1=C(C(=O)[O-])N2C(=O)C(NC(=O)/C(=N\OC(C(=O)O)c3ccc(O)c(O)c3)c3csc(N)n3)[C@H]2SC1` (stereo partly drawn) [I-6(a), 7-[(Z)-2-(2-aminothiazol-4-yl)-2-(α-carboxy-3,4-dihydroxybenzyloxyimino)acetamido]-3-(4-amino-1-methyl-5-carboxypyrimidinium-2-yl)thiomethyl-3-cephem-4-carboxylate], the MIC amounted to 0.25 µg/mL (≈ 0.341 µM) in the data set on P. aeruginosa 1912E; 4 µg/mL (≈ 5.46 µM) in the data set on E. coli TEM9 2639E; 1 µg/mL (≈ 1.36 µM) against S. marcescens 1826E; 32 µg/mL (≈ 43.7 µM) with S. faecalis 29212A (29212A, 20 h); 0.25 µg/mL (≈ 0.341 µM) in the data set with K. aerogenes 1976E; 0.5 µg/mL (≈ 0.682 µM) in the data set with P. aeruginosa 6065Y. In addition, the MIC in the data set on S. aureus giorigio was 2 µg/mL (≈ 2.73 µM); with E. coli 10536 (setting [3]), 0.031 µg/mL (≈ 0.0423 µM); with E. coli TEM1 1193E, 0.063 µg/mL (≈ 0.086 µM); with E. coli TEM5 3739E it was 0.25 µg/mL (≈ 0.341 µM); with A. calcoaceticus 15473A, 0.5 µg/mL (≈ 0.682 µM); against S. aureus 6538pA, 2 µg/mL (≈ 2.73 µM). Further, the MIC in the data set on S. typhimurium 14028A (setting [4]) amounted to 0.031 µg/mL (≈ 0.0423 µM); in the data set with E. cloacae 1194E (1194E, 20 h), 4 µg/mL (≈ 5.46 µM); with E. coli 3190Y (3190Y, 20 h), 0.13 µg/mL (≈ 0.177 µM); with P. aeruginosa 10145, 0.25 µg/mL (≈ 0.341 µM). In data set [1], the AUC was 37800 ng·h/mL. This compound also registered a half-life in data set [1] of 32 min.

These data come from US5605895A, “Cephalosporin antibiotics and processes for preparation thereof” (Lucky, Ltd., priority 1993, dated 1997).
